Results published in ChEMBL document CHEMBL1201862, “PubChem BioAssay data set” (2004).
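Tested at 5 concentrations; 48 h exposure; 96-well plates; endpoints linearly interpolated, else capped at highest concentration. GI50 marks 50% less growth.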 Active and inactive are the calls of the source. Rule as the data show it: active = GI50 up to about 1.1 µM and inactive = higher. Where a SMILES comes first, the peptide text is derived from it. The star is where a group is joined. Boc = CC(C)(C)OC(=O)*

How the values were obtained:
Assay in all cases: NCI anticancer screen, dose series, 48 h
NCI-H23 = tested on: NCI-H23
LOX IMVI = tested on: LOX IMVI
MDA-N = tested on: MDA-N
KM12 = tested on: KM12
COLO 205 = tested on: COLO 205
Malme-3M = tested on: Malme-3M
UACC-257 = tested on: UACC-257
HOP-62 = tested on: HOP-62
HOP-92 = tested on: HOP-92
K562 = tested on: K562
UACC-62 = tested on: UACC-62
SK-MEL-5 = tested on: SK-MEL-5
MCF7 = tested on: MCF7
MDA-MB-435 = tested on: MDA-MB-435
SF-268 = tested on: SF-268
RPMI-8226 = tested on: RPMI-8226
SK-OV-3 = tested on: SK-OV-3
SNB-75 = tested on: SNB-75
CCRF-CEM = tested on: CCRF-CEM
HL-60 = tested on: HL-60

Measured: GI50

C[N+](C)(N)Cc1csc(-c2ccc(Cl)cc2)n1
inactive: NCI-H23 > 100 µM | LOX IMVI > 100 µM | MDA-N > 100 µM | KM12 > 100 µM | COLO 205 > 100 µM | Malme-3M 39.4 µM | UACC-257 > 100 µM | HOP-62 75.7 µM | HOP-92 > 100 µM | K562 > 100 µM | UACC-62 > 100 µM | SK-MEL-5 61.5 µM | MCF7 > 100 µM | MDA-MB-435 > 100 µM | SF-268 46.5 µM | RPMI-8226 > 100 µM | SK-OV-3 > 100 µM | SNB-75 42.4 µM

N#CCc1nc(Cc2ccccc2)n[nH]1
inactive: NCI-H23 > 100 µM | LOX IMVI > 100 µM | MDA-N > 100 µM | KM12 > 100 µM | COLO 205 > 100 µM | Malme-3M > 100 µM | CCRF-CEM > 100 µM | UACC-257 > 100 µM | HOP-62 > 100 µM | HOP-92 > 100 µM | K562 > 100 µM | UACC-62 > 100 µM | SK-MEL-5 > 100 µM | MCF7 > 100 µM | MDA-MB-435 > 100 µM | SF-268 > 100 µM | HL-60 > 100 µM | SK-OV-3 > 100 µM | SNB-75 > 100 µM

O=C(C1OC1c1ccc([N+](=O)[O-])cc1)C12CC3CC(CC(C3)C1)C2 (stereo unspecified)
inactive: NCI-H23 13.4 µM | LOX IMVI 1.69 µM | MDA-N 11.6 µM | KM12 14.7 µM | COLO 205 19.2 µM | Malme-3M 16.9 µM | CCRF-CEM 2.79 µM | UACC-257 14.7 µM | HOP-62 24.3 µM | HOP-92 20.3 µM | K562 13.1 µM | UACC-62 12.1 µM | SK-MEL-5 15.6 µM | MCF7 13.3 µM | MDA-MB-435 12.3 µM | SF-268 18.5 µM | HL-60 3.46 µM | SK-OV-3 23.2 µM | SNB-75 19.1 µM

CC(NC(=O)C1CCCN1C(=O)CNC(=O)OC(C)(C)C)C(=O)O (stereo not drawn) (Boc-Gly-Pro-Ala-OH; configuration not given here)
inactive: NCI-H23 > 100 µM | MDA-N > 100 µM | KM12 > 100 µM | COLO 205 > 100 µM | Malme-3M > 100 µM | UACC-257 > 100 µM | HOP-62 > 100 µM | HOP-92 62.5 µM | K562 > 100 µM | UACC-62 > 100 µM | SK-MEL-5 > 100 µM | MCF7 > 100 µM | MDA-MB-435 > 100 µM | SF-268 > 100 µM | RPMI-8226 > 100 µM | SK-OV-3 > 100 µM | SNB-75 > 100 µM

O=C1C=CC[C@H](/C=C/C[C@@H](O)C[C@H](O)/C=C/c2ccccc2)O1
inactive: NCI-H23 11.3 µM | LOX IMVI 2.92 µM | MDA-N 12.4 µM | KM12 12.3 µM | COLO 205 7.87 µM | Malme-3M 14.9 µM | CCRF-CEM 3.74 µM | UACC-257 13.9 µM | HOP-62 16.5 µM | HOP-92 2.56 µM | K562 10.9 µM | UACC-62 15 µM | SK-MEL-5 13.7 µM | MCF7 12.4 µM | MDA-MB-435 11.3 µM | SF-268 21.8 µM | HL-60 3.56 µM | SK-OV-3 15 µM | SNB-75 13.6 µM

COC(=O)C1=C(O)C(C(=O)OC)[C@@]2(O)[C@@H](C(=O)OC)C(c3ccc(OC(=O)/C(=C/c4ccccc4)c4ccccc4)cc3)C[C@@H]1[C@@H]2C(=O)OC (stereo partly specified)
inactive: NCI-H23 > 100 µM | LOX IMVI 4.71 µM | MDA-N 6.35 µM | KM12 27.9 µM | COLO 205 40 µM | Malme-3M > 100 µM | CCRF-CEM 4.9 µM | UACC-257 18.9 µM | HOP-62 > 100 µM | HOP-92 14.4 µM | K562 9.25 µM | UACC-62 3.47 µM | SK-MEL-5 26.8 µM | MCF7 10.5 µM | MDA-MB-435 10.5 µM | SF-268 47.3 µM | HL-60 17.4 µM | SK-OV-3 > 100 µM | SNB-75 12.1 µM
